Reference: ChEMBL document CHEMBL4800729 (2021)

Assays:
[1] = molecular target: Histamine H3 receptor (Homo sapiens) (UniProt Q9Y5N1); settings: Compound concentration 10.0 uM
[2] = molecular target: Sigma intracellular receptor 2 (Homo sapiens) (UniProt Q5BJF2); settings: Compound concentration 10.0 uM
[3] = molecular target: D(4) dopamine receptor (Homo sapiens) (UniProt P21917); settings: Compound concentration 10.0 uM
[4] = molecular target: Alpha-2A adrenergic receptor (Homo sapiens) (UniProt P08913); settings: Compound concentration 10.0 uM
Chain of Alpha-2A adrenergic receptor (Homo sapiens) (P08913 whole entry): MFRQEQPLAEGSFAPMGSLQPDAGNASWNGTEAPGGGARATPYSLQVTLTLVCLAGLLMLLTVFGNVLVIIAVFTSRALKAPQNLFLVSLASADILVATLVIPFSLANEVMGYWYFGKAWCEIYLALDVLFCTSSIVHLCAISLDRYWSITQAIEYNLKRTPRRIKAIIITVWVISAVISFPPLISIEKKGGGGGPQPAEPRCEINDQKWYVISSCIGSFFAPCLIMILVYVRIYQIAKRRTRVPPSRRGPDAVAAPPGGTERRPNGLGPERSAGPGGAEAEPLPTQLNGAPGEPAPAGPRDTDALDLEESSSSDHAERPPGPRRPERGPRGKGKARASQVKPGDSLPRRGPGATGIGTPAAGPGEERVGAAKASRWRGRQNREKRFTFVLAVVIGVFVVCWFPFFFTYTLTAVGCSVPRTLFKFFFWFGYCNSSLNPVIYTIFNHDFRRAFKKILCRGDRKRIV

[5] = molecular target: Kappa-type opioid receptor (Homo sapiens) (UniProt P41145); settings: Compound concentration 10.0 uM
[6] = molecular target: 5-hydroxytryptamine receptor 3A (Homo sapiens) (UniProt P46098); settings: Compound concentration 10.0 uM
Chain of 5-hydroxytryptamine receptor 3A (Homo sapiens) (P46098 whole entry): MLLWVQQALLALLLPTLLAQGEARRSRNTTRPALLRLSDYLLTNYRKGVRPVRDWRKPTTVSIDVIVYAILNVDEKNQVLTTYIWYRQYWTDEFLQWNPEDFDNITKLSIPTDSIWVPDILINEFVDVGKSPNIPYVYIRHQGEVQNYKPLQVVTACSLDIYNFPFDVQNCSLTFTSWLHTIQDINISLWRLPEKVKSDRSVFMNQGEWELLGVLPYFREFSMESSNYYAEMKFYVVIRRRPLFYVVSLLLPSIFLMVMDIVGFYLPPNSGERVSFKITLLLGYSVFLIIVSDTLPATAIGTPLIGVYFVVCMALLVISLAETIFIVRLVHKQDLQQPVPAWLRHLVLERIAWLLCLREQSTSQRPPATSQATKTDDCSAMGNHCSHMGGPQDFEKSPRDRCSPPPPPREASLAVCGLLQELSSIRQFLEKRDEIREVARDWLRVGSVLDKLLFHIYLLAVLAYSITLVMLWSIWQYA

[7] = molecular target: Sigma non-opioid intracellular receptor 1 (Homo sapiens) (UniProt Q99720); settings: Compound concentration 10.0 uM
Chain of Sigma non-opioid intracellular receptor 1 (Homo sapiens) (Q99720 whole entry): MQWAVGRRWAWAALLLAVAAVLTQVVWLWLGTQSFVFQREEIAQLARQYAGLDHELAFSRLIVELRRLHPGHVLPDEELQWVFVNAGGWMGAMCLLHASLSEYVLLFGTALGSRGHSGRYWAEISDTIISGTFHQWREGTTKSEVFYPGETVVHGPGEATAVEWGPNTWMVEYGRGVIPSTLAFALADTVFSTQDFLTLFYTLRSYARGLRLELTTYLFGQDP

[8] = molecular target: D(2) dopamine receptor (Homo sapiens) (UniProt P14416); settings: Compound concentration 10.0 uM
[9] = molecular target: Beta-1 adrenergic receptor (Homo sapiens) (UniProt P08588); settings: Compound concentration 10.0 uM
[10] = molecular target: T1, Muscarinic acetylcholine receptor M1 (Homo sapiens) (UniProt P11229); settings: Compound concentration 10.0 uM
T1 sequence (whole entry): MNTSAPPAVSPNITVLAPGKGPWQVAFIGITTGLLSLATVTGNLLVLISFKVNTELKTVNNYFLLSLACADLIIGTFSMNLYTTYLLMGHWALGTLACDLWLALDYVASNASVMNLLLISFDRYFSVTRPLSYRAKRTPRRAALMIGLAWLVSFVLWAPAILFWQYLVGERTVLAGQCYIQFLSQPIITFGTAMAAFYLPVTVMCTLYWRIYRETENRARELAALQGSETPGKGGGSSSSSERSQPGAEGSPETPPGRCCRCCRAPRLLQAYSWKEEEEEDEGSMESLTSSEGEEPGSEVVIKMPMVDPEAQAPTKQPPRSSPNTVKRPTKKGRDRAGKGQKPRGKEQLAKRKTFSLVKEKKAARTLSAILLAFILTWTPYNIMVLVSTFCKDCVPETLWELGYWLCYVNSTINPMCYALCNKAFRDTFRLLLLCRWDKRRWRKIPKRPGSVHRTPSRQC

[11] = molecular target: Mu-type opioid receptor (Homo sapiens) (UniProt P35372); settings: Compound concentration 10.0 uM
[12] = molecular target: Delta-type opioid receptor (Homo sapiens) (UniProt P41143); settings: Compound concentration 10.0 uM
[13] = molecular target: T2, 5-hydroxytryptamine receptor 1B (Homo sapiens, UniProt P28222); settings: Compound concentration 10.0 uM
T2 sequence (P28222 whole entry): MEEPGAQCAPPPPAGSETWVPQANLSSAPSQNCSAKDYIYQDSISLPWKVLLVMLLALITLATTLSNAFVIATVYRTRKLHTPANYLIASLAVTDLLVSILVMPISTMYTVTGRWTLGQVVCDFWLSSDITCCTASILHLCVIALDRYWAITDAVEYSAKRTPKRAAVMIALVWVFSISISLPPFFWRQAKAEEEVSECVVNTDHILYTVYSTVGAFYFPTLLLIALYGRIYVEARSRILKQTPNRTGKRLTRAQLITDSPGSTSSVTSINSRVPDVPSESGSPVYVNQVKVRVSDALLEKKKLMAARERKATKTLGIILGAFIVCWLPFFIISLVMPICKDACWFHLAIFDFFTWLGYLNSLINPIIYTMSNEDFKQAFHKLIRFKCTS

[14] = molecular target: Sodium-dependent noradrenaline transporter (Homo sapiens) (UniProt P23975); settings: Compound concentration 10.0 uM
[15] = molecular target: 5-hydroxytryptamine receptor 5A (Homo sapiens) (UniProt P47898); settings: Compound concentration 10.0 uM
Chain of 5-hydroxytryptamine receptor 5A (Homo sapiens) (P47898 whole entry): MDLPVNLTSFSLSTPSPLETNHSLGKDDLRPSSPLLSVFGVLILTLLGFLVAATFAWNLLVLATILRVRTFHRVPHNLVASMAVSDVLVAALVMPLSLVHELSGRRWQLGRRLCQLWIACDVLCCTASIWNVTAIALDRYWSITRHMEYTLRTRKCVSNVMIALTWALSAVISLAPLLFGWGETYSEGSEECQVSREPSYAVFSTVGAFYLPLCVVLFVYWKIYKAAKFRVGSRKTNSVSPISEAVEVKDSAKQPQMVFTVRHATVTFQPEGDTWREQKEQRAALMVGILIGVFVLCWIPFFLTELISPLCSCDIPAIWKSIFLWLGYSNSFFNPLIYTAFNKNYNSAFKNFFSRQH

[16] = molecular target: T3, Alpha-2C adrenergic receptor (Homo sapiens) (UniProt P18825); settings: Compound concentration 10.0 uM
T3 sequence (whole entry): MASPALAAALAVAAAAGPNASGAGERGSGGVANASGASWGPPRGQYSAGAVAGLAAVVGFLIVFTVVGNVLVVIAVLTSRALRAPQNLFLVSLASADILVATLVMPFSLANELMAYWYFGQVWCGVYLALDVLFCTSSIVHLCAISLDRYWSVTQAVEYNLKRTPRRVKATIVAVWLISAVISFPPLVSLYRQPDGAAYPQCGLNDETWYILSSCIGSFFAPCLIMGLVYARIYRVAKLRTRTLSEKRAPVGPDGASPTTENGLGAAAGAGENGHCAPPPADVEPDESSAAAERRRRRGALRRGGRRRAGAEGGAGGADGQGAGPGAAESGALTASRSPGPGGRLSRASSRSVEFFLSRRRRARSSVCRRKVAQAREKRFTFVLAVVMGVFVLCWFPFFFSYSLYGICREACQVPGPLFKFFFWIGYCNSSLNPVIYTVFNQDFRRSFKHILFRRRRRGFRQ

[17] = molecular target: Histamine H4 receptor (Homo sapiens) (UniProt Q9H3N8); settings: Compound concentration 10.0 uM
Chain of Histamine H4 receptor (Homo sapiens) (Q9H3N8 whole entry): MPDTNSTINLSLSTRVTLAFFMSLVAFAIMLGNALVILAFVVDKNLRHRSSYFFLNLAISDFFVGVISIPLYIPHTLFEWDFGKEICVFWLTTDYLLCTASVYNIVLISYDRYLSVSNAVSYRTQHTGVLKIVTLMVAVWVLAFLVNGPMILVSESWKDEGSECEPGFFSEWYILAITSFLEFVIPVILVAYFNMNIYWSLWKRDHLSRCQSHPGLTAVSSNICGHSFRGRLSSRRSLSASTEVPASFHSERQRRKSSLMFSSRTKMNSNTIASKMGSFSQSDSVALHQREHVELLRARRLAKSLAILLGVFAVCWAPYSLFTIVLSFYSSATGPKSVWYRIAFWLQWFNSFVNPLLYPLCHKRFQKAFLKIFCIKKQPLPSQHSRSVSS

[18] = molecular target: T4, Alpha-2B adrenergic receptor (Homo sapiens) (UniProt P18089); settings: Compound concentration 10.0 uM
T4 sequence (whole entry): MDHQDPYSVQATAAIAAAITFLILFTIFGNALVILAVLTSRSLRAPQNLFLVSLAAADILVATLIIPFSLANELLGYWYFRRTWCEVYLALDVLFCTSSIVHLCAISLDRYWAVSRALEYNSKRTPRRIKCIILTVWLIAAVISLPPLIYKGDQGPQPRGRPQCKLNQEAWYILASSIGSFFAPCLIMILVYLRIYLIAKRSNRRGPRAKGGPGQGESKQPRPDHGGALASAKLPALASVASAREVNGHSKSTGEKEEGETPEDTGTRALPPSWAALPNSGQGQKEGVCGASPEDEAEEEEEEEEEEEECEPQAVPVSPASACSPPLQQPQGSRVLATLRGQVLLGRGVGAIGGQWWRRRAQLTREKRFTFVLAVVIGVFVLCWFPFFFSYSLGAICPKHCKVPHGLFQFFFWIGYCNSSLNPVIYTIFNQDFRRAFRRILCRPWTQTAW

[19] = molecular target: T5, 5-hydroxytryptamine receptor 1A (Homo sapiens) (UniProt P08908); settings: Compound concentration 10.0 uM
T5 sequence (whole entry): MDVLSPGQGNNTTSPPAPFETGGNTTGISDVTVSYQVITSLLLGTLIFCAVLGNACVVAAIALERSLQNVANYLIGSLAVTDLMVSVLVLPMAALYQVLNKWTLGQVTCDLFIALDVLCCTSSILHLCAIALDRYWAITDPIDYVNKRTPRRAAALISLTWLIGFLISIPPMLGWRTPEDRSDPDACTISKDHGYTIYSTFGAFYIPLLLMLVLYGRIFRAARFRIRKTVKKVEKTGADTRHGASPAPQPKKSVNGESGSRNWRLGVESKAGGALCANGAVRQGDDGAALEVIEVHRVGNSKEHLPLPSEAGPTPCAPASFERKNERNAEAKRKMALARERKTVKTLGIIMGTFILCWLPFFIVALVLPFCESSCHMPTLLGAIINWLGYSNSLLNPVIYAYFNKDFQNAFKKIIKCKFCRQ

[20] = molecular target: D(1A) dopamine receptor (Homo sapiens, UniProt P21728); assay: GPCRScan assay: inhibition of D1; parameters: radioligand conc. used [nm] 0.6 – 1.3, parental cells HEKT
Chain of D(1A) dopamine receptor (P21728 whole entry): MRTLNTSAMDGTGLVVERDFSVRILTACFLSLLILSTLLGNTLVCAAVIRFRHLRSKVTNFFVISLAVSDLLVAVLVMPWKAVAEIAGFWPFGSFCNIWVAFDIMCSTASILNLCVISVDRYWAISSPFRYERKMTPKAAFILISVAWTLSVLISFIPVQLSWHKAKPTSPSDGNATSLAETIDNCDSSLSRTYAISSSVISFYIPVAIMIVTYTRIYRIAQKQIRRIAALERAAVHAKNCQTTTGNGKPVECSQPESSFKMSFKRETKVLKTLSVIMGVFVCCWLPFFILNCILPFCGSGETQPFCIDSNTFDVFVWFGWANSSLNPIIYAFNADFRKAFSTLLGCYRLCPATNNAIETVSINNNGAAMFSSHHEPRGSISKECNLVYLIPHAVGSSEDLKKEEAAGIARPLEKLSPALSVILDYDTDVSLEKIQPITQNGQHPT

[21] = molecular target: 5-hydroxytryptamine receptor 6 (Homo sapiens, UniProt P50406); assay: GPCRScan assay: inhibition of 5-HT6; parameters: radioligand conc. used [nm] 2.0 – 4.0, parental cells stable HEK
Chain of 5-hydroxytryptamine receptor 6 (P50406 whole entry): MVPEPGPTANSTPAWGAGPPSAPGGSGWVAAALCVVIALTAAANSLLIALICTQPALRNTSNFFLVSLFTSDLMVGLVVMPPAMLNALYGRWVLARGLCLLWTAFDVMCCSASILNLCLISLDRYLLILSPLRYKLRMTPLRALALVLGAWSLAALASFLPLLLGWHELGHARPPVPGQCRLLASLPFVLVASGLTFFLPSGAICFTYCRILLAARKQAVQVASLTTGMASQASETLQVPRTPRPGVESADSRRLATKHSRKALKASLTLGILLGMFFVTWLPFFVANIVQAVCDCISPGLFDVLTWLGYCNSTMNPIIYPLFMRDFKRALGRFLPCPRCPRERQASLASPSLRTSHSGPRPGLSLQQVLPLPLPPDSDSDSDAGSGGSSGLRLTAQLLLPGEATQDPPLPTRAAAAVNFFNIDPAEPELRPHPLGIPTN

[22] = species on record: Rattus norvegicus; settings: Compound concentration 10.0 uM
[23] = molecular target: 5-hydroxytryptamine receptor 2A (Homo sapiens) (UniProt P28223); settings: Compound concentration 10.0 uM
[24] = molecular target: Beta-3 adrenergic receptor (Homo sapiens) (UniProt P13945); settings: Compound concentration 10.0 uM
[25] = molecular target: T2, 5-hydroxytryptamine receptor 1B; assay: GPCRScan assay: inhibition of 5-HT1B; parameters: radioligand conc. used [nm] 0.6 – 1.5, parental cells stable HEK
[26] = molecular target: D(3) dopamine receptor (Homo sapiens) (UniProt P35462); settings: Compound concentration 10.0 uM
[27] = molecular target: Histamine H2 receptor (Homo sapiens) (UniProt P25021); settings: Compound concentration 10.0 uM
[28] = molecular target: 5-hydroxytryptamine receptor 1D (Homo sapiens) (UniProt P28221); settings: Compound concentration 10.0 uM
[29] = molecular target: Histamine H1 receptor (Homo sapiens) (UniProt P35367); settings: Compound concentration 10.0 uM
[30] = molecular target: Muscarinic acetylcholine receptor M4 (Homo sapiens) (UniProt P08173); settings: Compound concentration 10.0 uM
Chain of Muscarinic acetylcholine receptor M4 (Homo sapiens) (P08173 whole entry): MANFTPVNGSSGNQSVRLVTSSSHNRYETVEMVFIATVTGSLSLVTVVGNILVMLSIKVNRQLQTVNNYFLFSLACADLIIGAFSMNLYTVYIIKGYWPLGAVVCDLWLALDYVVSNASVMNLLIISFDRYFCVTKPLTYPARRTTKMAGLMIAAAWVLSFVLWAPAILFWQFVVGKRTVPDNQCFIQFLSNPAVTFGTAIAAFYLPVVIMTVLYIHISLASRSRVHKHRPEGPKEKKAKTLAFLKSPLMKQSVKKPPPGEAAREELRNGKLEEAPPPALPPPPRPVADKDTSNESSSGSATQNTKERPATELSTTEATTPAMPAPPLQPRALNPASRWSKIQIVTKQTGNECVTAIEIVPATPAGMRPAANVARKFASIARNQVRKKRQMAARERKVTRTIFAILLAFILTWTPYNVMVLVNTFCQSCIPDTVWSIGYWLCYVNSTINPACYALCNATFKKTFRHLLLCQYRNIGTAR

[31] = molecular target: Sodium-dependent dopamine transporter (Homo sapiens) (UniProt Q01959); settings: Compound concentration 10.0 uM
Chain of Sodium-dependent dopamine transporter (Homo sapiens) (Q01959 whole entry): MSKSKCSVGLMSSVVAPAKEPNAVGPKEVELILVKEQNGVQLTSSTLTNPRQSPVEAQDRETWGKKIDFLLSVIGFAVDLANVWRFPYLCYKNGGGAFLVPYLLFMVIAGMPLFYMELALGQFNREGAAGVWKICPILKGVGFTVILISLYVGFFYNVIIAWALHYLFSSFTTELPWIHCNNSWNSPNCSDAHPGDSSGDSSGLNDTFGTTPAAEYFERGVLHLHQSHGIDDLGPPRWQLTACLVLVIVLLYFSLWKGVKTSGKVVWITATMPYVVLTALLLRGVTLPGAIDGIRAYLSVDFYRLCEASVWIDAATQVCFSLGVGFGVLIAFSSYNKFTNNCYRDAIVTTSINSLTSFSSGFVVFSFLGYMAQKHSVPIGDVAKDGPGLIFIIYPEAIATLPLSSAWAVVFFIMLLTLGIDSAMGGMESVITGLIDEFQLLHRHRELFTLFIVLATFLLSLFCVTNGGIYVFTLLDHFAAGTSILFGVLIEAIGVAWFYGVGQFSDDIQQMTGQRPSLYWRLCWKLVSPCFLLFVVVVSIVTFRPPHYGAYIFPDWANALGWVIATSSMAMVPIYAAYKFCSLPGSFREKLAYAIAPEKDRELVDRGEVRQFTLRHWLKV

Chain of Sigma intracellular receptor 2 (Homo sapiens) (Q5BJF2 whole entry): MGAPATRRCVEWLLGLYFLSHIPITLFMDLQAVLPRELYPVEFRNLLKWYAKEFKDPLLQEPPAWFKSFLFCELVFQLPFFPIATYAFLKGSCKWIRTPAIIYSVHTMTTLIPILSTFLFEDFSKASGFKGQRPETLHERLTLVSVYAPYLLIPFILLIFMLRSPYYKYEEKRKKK
Chain of D(4) dopamine receptor (Homo sapiens) (P21917 whole entry): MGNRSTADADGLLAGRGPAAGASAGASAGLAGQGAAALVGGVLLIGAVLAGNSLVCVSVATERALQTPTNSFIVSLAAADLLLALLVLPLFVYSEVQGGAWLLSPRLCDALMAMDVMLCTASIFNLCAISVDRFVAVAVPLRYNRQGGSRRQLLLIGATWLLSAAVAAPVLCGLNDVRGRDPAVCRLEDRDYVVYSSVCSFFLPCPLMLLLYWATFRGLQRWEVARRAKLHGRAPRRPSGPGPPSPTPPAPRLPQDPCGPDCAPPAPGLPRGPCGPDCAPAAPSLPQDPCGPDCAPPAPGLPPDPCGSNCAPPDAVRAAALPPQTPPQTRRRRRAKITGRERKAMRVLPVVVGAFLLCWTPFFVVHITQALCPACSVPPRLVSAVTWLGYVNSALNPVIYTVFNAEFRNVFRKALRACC

CC[C@H](Nc1c(C#N)c(-c2ccc(-c3cccc(C)c3F)cc2)nc2cnccc12)C(=O)O [BAY-0361]
inhibition [1]: -8.98%
inhibition [2]: 11.6%
inhibition [3]: -8.01%
inhibition [4]: 8.09%
inhibition [5]: 4.36%
inhibition [6]: 2.07%
inhibition [7]: 23.1%
inhibition [8]: -5.16%
inhibition [9]: 5.52%
inhibition [10]: -8.53%
inhibition [11]: -9.08%
inhibition [12]: 3.55%
inhibition [13]: 51%
inhibition [14]: -6.08%
inhibition [15]: -9.19%
inhibition [16]: -6.46%
inhibition [17]: 18.7%
inhibition [18]: -7.7%
inhibition [19]: 8.67%
Ki [20]: 9.48 µM
Ki [21]: > 10 µM
pKi [21]: < 5
inhibition [22]: 41.8%
inhibition [23]: -9.27%
inhibition [24]: 21.6%
Ki [25]: > 10 µM
pKi [25]: < 5
inhibition [26]: 7.14%
inhibition [27]: 9.78%
inhibition [28]: 46.6%
inhibition [29]: -8.53%
inhibition [30]: -0.83%
inhibition [31]: 38.8%
